pIC50: −log10 of the molar value.
target: T1, full-length human Mineralocorticoid Receptor (MR) (Homo sapiens, UniProt P08235); assay: human MR NH Pro assay (PathHunter protein:protein interaction, MR antagonism); format: cell-based; conditions: PathHunter CHO-K1 cells overexpressing human MR; aldosterone (0.3 nM), 6 hours at 37° C.; antagonism of MR binding to coactivator peptide; read-out: IC50 Rating
T1 construct: host or cells: PathHunter CHO-K1 cells
T1 sequence (P08235 1-984): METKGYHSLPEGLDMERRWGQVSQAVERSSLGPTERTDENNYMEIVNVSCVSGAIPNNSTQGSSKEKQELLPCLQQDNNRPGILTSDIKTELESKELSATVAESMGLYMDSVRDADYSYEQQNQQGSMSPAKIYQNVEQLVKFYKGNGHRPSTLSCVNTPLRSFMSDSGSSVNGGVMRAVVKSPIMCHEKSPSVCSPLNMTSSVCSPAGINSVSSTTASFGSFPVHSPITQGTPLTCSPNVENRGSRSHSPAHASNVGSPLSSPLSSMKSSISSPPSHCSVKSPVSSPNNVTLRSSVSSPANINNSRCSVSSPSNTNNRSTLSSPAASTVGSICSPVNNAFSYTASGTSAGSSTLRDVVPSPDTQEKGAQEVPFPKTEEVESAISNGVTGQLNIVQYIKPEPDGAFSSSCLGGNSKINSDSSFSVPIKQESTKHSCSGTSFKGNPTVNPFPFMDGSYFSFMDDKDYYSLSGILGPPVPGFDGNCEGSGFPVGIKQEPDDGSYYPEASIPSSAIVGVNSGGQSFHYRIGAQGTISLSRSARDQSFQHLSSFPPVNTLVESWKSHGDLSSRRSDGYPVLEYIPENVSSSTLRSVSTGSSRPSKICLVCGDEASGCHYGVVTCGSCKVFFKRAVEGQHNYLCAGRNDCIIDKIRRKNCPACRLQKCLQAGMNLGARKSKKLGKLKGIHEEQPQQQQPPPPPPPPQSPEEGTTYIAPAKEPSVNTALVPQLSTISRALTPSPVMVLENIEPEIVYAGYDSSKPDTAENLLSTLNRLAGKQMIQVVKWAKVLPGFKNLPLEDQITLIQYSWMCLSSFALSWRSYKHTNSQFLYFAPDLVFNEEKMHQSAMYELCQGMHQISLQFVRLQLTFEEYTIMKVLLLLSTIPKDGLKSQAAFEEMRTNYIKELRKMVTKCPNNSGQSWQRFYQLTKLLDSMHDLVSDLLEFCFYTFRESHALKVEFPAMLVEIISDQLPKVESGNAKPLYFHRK
Protocol: The activity of the compounds of the present invention regarding mineralocorticoid receptor antagonism was evaluated using the following assay.
The human MR NH Pro assay is a commercially available PathHunter™ Protein: Protein interaction assay (DiscoveRx; http://www.discoverx.com/nhrs/prod-nhrs.php) that measures the ability of compounds to antagonize full-length human Mineralocorticoid Receptor (MR) binding to a coactivator peptide.
3× PathHunter Detection Reagents (Cat #93-0001) (need ˜6 ml/plate). […] Control Agonist: Aldosterone: Sigma cat #A9477 • Prepare stock solution—10 μM in DMSO kept at −20° C. • for assay, dilute in assay media to 1.8 or 6 nM (6× of final concentration=about 0.3 nM to about 1.0 nM) • 5. Cell line: PathHunter CHO-K1 MR cells Cat #93-0456C2, Lot No: 09B0913, from operation liquid nitrogen stock. • 6. […] Methods: • Assay Set Up and Calculations: • 1. Cells were grown in F12+FBS+Hygromycin+pen/strep+Genetin • 2. Cells were collected with 0.05% trypsin and the cell suspension was spun and resuspended in a volume of F12+1.5% CD-FBS and counted. • 3. The cells were resuspended to 4×10^5 cells/mL. • 4. Cells were (25 μL/well) added to the wells of a 384 well plate. • 5. The plate was then incubated at 37° C. over night in a humidified incubator with 5% CO2. • 6. Test compounds were titrated starting at 4.4 mM, 10-point titration in 1:3 dilution. • 7.
5 μL of assay media was added to all wells in column 23 and 24. • 5. Plates were incubated 6 hrs at 37° C., 5% CO2. • 6. 15 μL 3× DiscoveRx detection reagent was added to each well. • 7. Plates were incubated for 1 hour at room temperature (plates stored in the dark). • 8.

Structure (SMILES) | pIC50
COc1cc(OC)cc(-c2n[nH]c(C3(Cc4ccccc4)OC(=O)N([C@H](C)c4ccc(F)cc4)C3=O)n2)c1 (stereo partly drawn) [Compound 1, 5-Benzyl-5-[5-(3,5-dimethoxyphenyl)-4H-1,2,4-triazol-3-yl]-3-[(1R)-1-(4-fluorophenyl)ethyl]-1,3-oxazolidine-2,4-dione] | 5.70 to 6.30
COc1cc(OC)cc(-c2nnc([C@@]3(Cc4ccccc4)NC(=O)N([C@H](C)c4ccccc4)C3=O)o2)c1 (single isomer, unassigned) [Compound 22] | 5.70 to 6.30
COc1cc(Cc2nnc([C@@]3(Cc4ccccc4)OC(=O)N([C@H](C)c4ccccc4)C3=O)o2)cc(OC)c1 [Compound 2, (5R)-5-Benzyl-5-[5-(3,5-dimethoxybenzyl)-1,3,4-oxadiazol-2-yl]-3-[(1R)-1-phenylethyl]-1,3-oxazolidine-2,4-dione] | > 7.00
C[C@H](c1ccccc1)N1C(=O)O[C@](Cc2ccccc2)(c2nnc(C3(c4ccncc4)CC3)o2)C1=O [Compound 14, (5R)-5-Benzyl-3-[(1R)-1-phenylethyl]-5-[5-(1-pyridin-4-ylcyclopropyl)-1,3,4-oxadiazol-2-yl]-1,3-oxazolidine-2,4-dione] | 6.30 to 7.00
C[C@H](c1ccccc1)N1C(=O)O[C@](Cc2ccccc2)(c2nnc(CC(F)(F)F)o2)C1=O [Compound 11, (5R)-5-Benzyl-3-[(1R)-1-phenylethyl]-5-[5-(2,2,2-trifluoroethyl)-1,3,4-oxadiazol-2-yl]-1,3-oxazolidine-2,4-dione] | 5.70 to 6.30
COc1cc(N)cc(-c2nnc([C@@]3(Cc4ccccc4)OC(=O)N([C@H](C)c4ccccc4)C3=O)o2)c1 [Compound 10, (5R)-5-[5-(3-Amino-5-methoxyphenyl)-1,3,4-oxadiazol-2-yl]-5-benzyl-3-[(1R)-1-phenylethyl]-1,3-oxazolidine-2,4-dione] | 6.30 to 7.00
C[C@H](c1ccccc1)N1C(=O)O[C@](Cc2ccccc2)(c2nnc(C3(c4cc(F)cc(F)c4)CC3)o2)C1=O [Compound 9, (5R)-5-Benzyl-5-{5-[1-(3,5-difluorophenyl)cyclopropyl]-1,3,4-oxadiazol-2-yl}-3-[(1R)-1-phenylethyl]-1,3-oxazolidine-2,4-dione] | 6.30 to 7.00
C[C@H](c1ccccc1)N1C(=O)O[C@](Cc2ccccc2)(c2nnc(C3(C(F)(F)F)CC3)o2)C1=O [Compound 12, (5R)-5-Benzyl-3-[(1R)-1-phenylethyl]-5-{5-[1-(trifluoromethyl)cyclopropyl]-1,3,4-oxadiazol-2-yl}-1,3-oxazolidine-2,4-dione] | 5.70 to 6.30

Reference: patent publication US9085568B2, “Mineralocorticoid receptor antagonists” (Merck Sharp & Dohme Corp., priority 2011, dated 2015)
